Assays:
[1] = system: Parent elite stiff stalk inbred corn; test: Postemergence herbicide application to potted corn (fresh weight, visual injury); assay type: in vivo; conditions: 3472 g ae/ha
[2] = system: Heterozygous GAT-HRA corn; test: as above; assay type: in vivo; conditions: 3472 g ae/ha
[3] = system: non-transformed GS3 embryos; test: Glyphosate kill curve; assay type: cell-based, maize; conditions: about 40 days culture
Protocol: (§1) A glyphosate kill curve was established by testing non-transformed embryos response on media with different levels of glyphosate. GS3 embryos were isolated from an immature ear and placed onto media containing glyphosate at 0.0, 0.5, 1.0, and 2.0 mM. After about 40 days culture, the response of the embryos were observed and recorded. Similarly, infected GS3 embryos with the GAT construct were placed onto media containing glyphosate at 0.0, 0.5, 1.0, and 2.0 mM. After about 40 days culture, the response of the infected embryos were observed and recorded (FIG. 7).

[4] = system: Hairy Fleabane (Conyza bonariensis), glyphosate sensitive biotype; test: Control of hairy fleabane by glyphosate, metsulfuron-methyl and two additives; assay type: in vivo; conditions: glyphosate on its own
Protocol: This example included the same treatments as used in Example 11, except the treatments were carried out on a glyphosate sensitive biotype of Kleinskraalhans (Conyza bonariensis).

[5] = system: non-glyphosate resistant ryegrass; test: Control of ryegrass by glyphosate, metsulfuron-methyl and two additives; assay type: in vivo; conditions: 0.5 L ha-1 glyphosate (SCAT) alone
Protocol: The example was conducted on non-glyphosate resistant ryegrass. As provided in Table 23, all treatments that included glyphosate [180 g a.i. L ha^−1 (0.5 L glyphosate (SCAT®))] plus metsulfuron-methyl (BRUSH-OFFS®) (5 and 10 g ha^−1) gave 100% control of the ryegrass.

[6] = system: infected GS3 embryos with the GAT construct; test: Glyphosate selection of infected embryos; assay type: cell-based, maize; conditions: 1.0 mM or 2.0 mM glyphosate in medium; about 40 days culture
Protocol: as §1

[7] = system: GAT-HRA transgenic cotton plants; test: Greenhouse over-the-top herbicide spray of cotton; assay type: in vivo, Gossypium hirsutum; conditions: glyphosate 1.5 lb acid equivalent per acre; 14 days after application
From the text: (§2) Cotton (Gossypium hirsutum) Coker 312 was transformed with a GAT polynucleotide (gat 4621) together with an Hra polynucleotide (SEQ ID NO:86) both operably linked to strong, constitutive plant viral promoters. The promoter linked to gat4621 contains a duplicated portion of the Strawberry Vein Banding Virus transcript promoter (Wang et al. Virus Genes 20: 11-17, 2000; Genbank X97304). The Hra gene was driven by a duplicated portion of the Mirabilis Mosaic Caulimovirus full-length transcript promoter (U.S. Pat. No. 6,420,547; Dey and Maiti, Transgenics 3:61-70, 1999). The transformation procedure used Agrobacterium tumefaciens containing an expression cassette with the genes to be transferred and cotyledon explant derived callus with some capacity to undergo embryogenesis. The callus was exposed to Agrobacterium for 48-72 hours. The callus was then exposed to selection for transformed cells on 50-200 μg/l chlorosulfuron and/or 50-450 μM glyphosate in solid medium. Glyphosate can also be used in a concentration range of about 5 to about 450 μM. Selection was applied until somatic embryos formed, and selection was again applied at the embryo germination step, and optionally during rooting of plantlets. Over 450 GAT-HRA transformation events were produced using selection with both chlorsulfuron and glyphosate.
(§3) Transformed cotton plants were rooted and then transferred to soil for further growth. Plants were then subjected to herbicide spray treatments in a greenhouse. […] Untransformed Coker 312 control plants were dead 2 weeks after glyphosate application. […] Plants transformed with both GAT and HRA were further subjected to an “over the top” application of the sulfonylurea herbicide rimsulfuron at a rate of 16 g active ingredient/hectare. […] In further experiments 32 g ai/ha rimsulfuron were applied to the cotton.

[8] = system: Untransformed Coker 312 cotton plants; test: Greenhouse over-the-top herbicide spray of cotton; assay type: in vivo, Gossypium hirsutum
From the text: as §2, §3

[9] = system: Glyphosate, Paraquat, and ACCase-Inhibitor Resistant Ryegrass; test: Control of resistant ryegrass by glyphosate and representative SU's; assay type: in vivo; conditions: glyphosate (SCAT) only or plus an SU
From the text: In this example, four different SU's were applied together with glyphosate (SCAT®) on the resistant ryegrass. The results as to the best SU partner for glyphosate were inconclusive, but the average benefit of applying an SU with glyphosate on herbicide resistant ryegrass was 39% (e.g., 34% control with glyphosate (SCAT®) only and 57-83% control with glyphosate (SCAT®) plus metsulfuron-methyl (BRUSH-OFF®), chlorsulfuron (GLEAN®), or triasulfuron (LOGRAN(®)).

[10] = system: lead GAT7 soybean events; test: Field efficacy experiment JHM5G030, visual rating 7 and 14 days after treatment; assay type: in vivo; conditions: 7 DAS and 14 DAS; rimsulfuron 8.75 and 35.0 g/ha ai; Synchrony 35.03 and 140.11 g/ha ai; tribenuron 8.75 and 35.0 g/ha ai
Protocol: GAT round 7 (GAT7) transgenic events from construct PHP20163A were evaluated in 2004 for herbicide efficacy (JHM464TGATEFF) and yield potential (JHD4_GAT7 tests). […] 92M90 was selected as a STS variety to compare directly with the SAMS:ALS construct in the GAT7 events. Variety Jack was utilized as an untransformed negative control.
Selected lines were grown in experiment JHM5G030 in two replications of paired twelve foot rows, with eleven different treatments applied. Lines were blocked by event and treatment to provide side-by-side comparison of the eleven different spray treatments, with a 2 row border between each treatment to catch any spray drift. […] Lines were given a 100 (complete susceptibility, 100% damage) to 0 (complete tolerance, 0% damage) visual rating at 7 days after treatment and again at 14 days after treatment. Visual ratings were based upon overall degree of chlorosis, necrosis, and plant stunting (if evident) in the treated rows compared to the respective unsprayed control rows. Rating data at 7 and 14 days after spraying were subject to ANOVA and mean separation using SAS.

[11] = system: Wild Type soybeans (Jack); test: Postemergence herbicide test on soybeans, % visual injury; assay type: in vivo, soybean; conditions: non-transgenic control soybeans; 35 g/ha
Protocol: (§4) Four replications were performed for each treatment.
(§5) When possible, containers were thinned to two uniform plants.

[12] = system: GAT-HRA soybeans; test: as above; assay type: in vivo, soybean; conditions: 35 g/ha
Protocol: as §4, §5

[13] = system: Soybeans comprising the lead GAT7 event and also having HRA; test: Greenhouse test confirming the field trial (Example 6B); assay type: in vivo, soybean; conditions: GAT/HRA Soybeans
From the text: Example 6B provides greenhouse data that confirms the field trial data provided above in Example 6A. Soybeans comprising the lead GAT7 event and also having HRA were used in the studies.

| Compound | Fresh Weight ([1]; weighed 2 weeks after treatment, untreated 76.4 g) | % visual injury to corn at 3472 g/ha ([1]; Zea mays, post-emergence) | Fresh Weight ([2]; weighed 2 weeks after treatment, untreated 98.8 g) | Visual crop injury (%) at 3472 g/ha ([2]; Zea mays, post-emergence) | callus initiation ([3]; 0.5 mM glyphosate in medium) | callus growth ([3]; 1.0 and 2.0 mM glyphosate in medium) | plants killed [4] | plants that eventually died [5] | resistant callus initiation [6] | transgenic plants with no deleterious symptoms [7] | state of plants after application ([8]; 1.5 lb acid equivalent per acre, 4-6 leaf stage, 2 weeks after application) | control [9] | spray damage of the 4 GAT events compared to Jack and STS [10] | damage [11] | damage [12] | % Growth Reduction ([13]; Rimsulfuron 35 + Imazethapyr 0 g ai/ha, Treatment # 6) | % Growth Reduction ([13]; Rimsulfuron 70 + Imazethapyr 0 g ai/ha, Treatment # 11) | damage from the application ([8]; 16 g active ingredient/hectare, in the absence of glyphosate) |
| --- | --- | --- | --- | --- | --- | --- | --- | --- | --- | --- | --- | --- | --- | --- | --- | --- | --- | --- |
| O=C(O)CNCP(=O)(O)O [Glyphosate, N-phosphonomethylglycine] | 1.0 g | 100% | 97.4 g | 10% | about half of the embryos | very little callus growth | 1 out of 16 plants (12%) | 15 of the 16 plants (12%) | some embryos initiated resistant callus | approximately 50% | dead | 34% | – | – | – | – | – | – |
| COC(=O)c1ccccc1S(=O)(=O)NC(=O)N(C)c1nc(C)nc(OC)n1 [Tribenuron-methyl, methyl 2-[[[[N-(4-methoxy-6-methyl-1,3,5-triazin-2-yl)-N-methylamino]carbonyl]-amino]sulfonyl]benzoate] | – | – | – | – | – | – | – | – | – | – | – | – | significantly less visual damage compared to STS and Jack | killed | no significant damage | – | – | – |
| CCS(=O)(=O)c1cccnc1S(=O)(=O)NC(=O)Nc1nc(OC)cc(OC)n1 [Rimsulfuron, N-[[(4,6-dimethoxy-2-pyrimidinyl)amino]carbonyl]-3-(ethylsulfonyl)-2-pyridinesulfonamide] | – | – | – | – | – | – | – | – | – | – | – | – | significantly less spray damage compared to Jack and STS | – | – | 67% | 73% | severe damage |
